# Measurements taken from ChEMBL document CHEMBL1201862, “PubChem BioAssay data set” (2004).
#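 Method: 48-hour compound exposure of cells in 96-well plates, five concentrations, linear interpolation of endpoints. GI50 = concentration required for 50% inhibition of growth.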 Activity calls are given as the source filed them. No stated cut-off is given here; in the data, active = GI50 up to about 1.1 µM and inactive = higher.
# Tests used:
# Experiment in all cases: NCI tumour cell line growth inhibition, 48 h
# COLO 205 = test system: COLO 205
# HCC 2998 = test system: HCC 2998
# M14 = test system: M14
# A549 = test system: A549
# CCRF-CEM = test system: CCRF-CEM
# OVCAR-8 = test system: OVCAR-8
# CAKI-1 = test system: CAKI-1
# SK-MEL-5 = test system: SK-MEL-5
# HOP-92 = test system: HOP-92
# NCI-H23 = test system: NCI-H23
# DU-145 = test system: DU-145
# HCT-15 = test system: HCT-15
# SF-539 = test system: SF-539
# RPMI-8226 = test system: RPMI-8226
# T47D = test system: T47D
# HL-60 = test system: HL-60
# SN12C = test system: SN12C
# SK-OV-3 = test system: SK-OV-3
# U-251 = test system: U-251
# 786-0 = test system: 786-0
# HOP-62 = test system: HOP-62
# SNB-75 = test system: SNB-75
# UACC-62 = test system: UACC-62
# UO-31 = test system: UO-31
# A498 = test system: A498
# SR = test system: SR
# NCI/ADR-RES = test system: NCI/ADR-RES
# SW-620 = test system: SW-620
# IGROV-1 = test system: IGROV-1
# OVCAR-3 = test system: OVCAR-3
# PC-3 = test system: PC-3
# KM12 = test system: KM12
# Malme-3M = test system: Malme-3M
# K562 = test system: K562
# MOLT-4 = test system: MOLT-4
# MDA-MB-231 = test system: MDA-MB-231
# LOX IMVI = test system: LOX IMVI
# EKVX = test system: EKVX
# BT-549 = test system: BT-549
# MDA-N = test system: MDA-N
# NCI-H522 = test system: NCI-H522
# SNB-19 = test system: SNB-19
# SF-268 = test system: SF-268
# OVCAR-4 = test system: OVCAR-4
# HCT-116 = test system: HCT-116
# ACHN = test system: ACHN
# HT-29 = test system: HT-29
# NCI-H460 = test system: NCI-H460
# Hs-578T = test system: Hs-578T
# RXF 393 = test system: RXF 393
# TK-10 = test system: TK-10
# MDA-MB-435 = test system: MDA-MB-435
# SK-MEL-2 = test system: SK-MEL-2
# SK-MEL-28 = test system: SK-MEL-28
# SF-295 = test system: SF-295
# NCI-H226 = test system: NCI-H226
# UACC-257 = test system: UACC-257
# MCF7 = test system: MCF7
# OVCAR-5 = test system: OVCAR-5
compound,measurement,setting,value
CCOS(=O)(=O)c1ccc(-c2c3nc(c(-c4ccc(S(=O)(=O)OCC)cc4)c4ccc([nH]4)c(-c4ccc(S(=O)(=O)OCC)cc4)c4nc(c(-c5ccc(S(=O)(=O)OCC)cc5)c5ccc2[nH]5)C=C4)C=C3)cc1,GI50,COLO 205,> 31.6 µM (inactive)
same,GI50,HCC 2998,> 31.6 µM (inactive)
same,GI50,M14,> 31.6 µM (inactive)
same,GI50,A549,> 31.6 µM (inactive)
same,GI50,CCRF-CEM,> 31.6 µM (inactive)
same,GI50,OVCAR-8,> 31.6 µM (inactive)
same,GI50,CAKI-1,> 31.6 µM (inactive)
same,GI50,SK-MEL-5,> 31.6 µM (inactive)
same,GI50,HOP-92,> 100 µM (inactive)
same,GI50,NCI-H23,> 31.6 µM (inactive)
same,GI50,DU-145,> 31.6 µM (inactive)
same,GI50,HCT-15,> 31.6 µM
same,GI50,SF-539,8.13 µM (inactive)
same,GI50,RPMI-8226,> 31.6 µM (inactive)
same,GI50,T47D,> 31.6 µM (inactive)
same,GI50,HL-60,> 31.6 µM (inactive)
same,GI50,SN12C,> 31.6 µM (inactive)
same,GI50,SK-OV-3,> 31.6 µM (inactive)
same,GI50,U-251,> 31.6 µM (inactive)
same,GI50,786-0,> 31.6 µM (inactive)
same,GI50,HOP-62,> 10 µM (inactive)
same,GI50,SNB-75,> 10 µM (inactive)
same,GI50,UACC-62,> 31.6 µM (inactive)
same,GI50,UO-31,24.8 µM (inactive)
same,GI50,A498,> 31.6 µM (inactive)
same,GI50,SR,> 31.6 µM (inactive)
same,GI50,NCI/ADR-RES,> 31.6 µM (inactive)
same,GI50,SW-620,> 31.6 µM (inactive)
same,GI50,IGROV-1,> 100 µM (inactive)
same,GI50,OVCAR-3,> 10 µM (inactive)
same,GI50,PC-3,> 31.6 µM (inactive)
same,GI50,KM12,> 31.6 µM (inactive)
same,GI50,Malme-3M,17.7 µM (inactive)
same,GI50,K562,> 10 µM (inactive)
same,GI50,MOLT-4,> 31.6 µM (inactive)
same,GI50,MDA-MB-231,> 31.6 µM (inactive)
same,GI50,LOX IMVI,> 10 µM (inactive)
same,GI50,EKVX,> 31.6 µM (inactive)
same,GI50,BT-549,> 31.6 µM (inactive)
same,GI50,MDA-N,> 31.6 µM (inactive)
same,GI50,NCI-H522,10.5 µM (inactive)
same,GI50,SNB-19,> 31.6 µM (inactive)
same,GI50,SF-268,> 31.6 µM (inactive)
same,GI50,OVCAR-4,> 31.6 µM (inactive)
same,GI50,HCT-116,> 31.6 µM (inactive)
same,GI50,ACHN,> 31.6 µM (inactive)
same,GI50,HT-29,> 100 µM (inactive)
same,GI50,NCI-H460,> 31.6 µM (inactive)
same,GI50,Hs-578T,> 31.6 µM (inactive)
same,GI50,RXF 393,17.2 µM (inactive)
same,GI50,TK-10,> 31.6 µM (inactive)
same,GI50,MDA-MB-435,> 31.6 µM (inactive)
same,GI50,SK-MEL-2,> 31.6 µM (inactive)
same,GI50,SK-MEL-28,> 10 µM (inactive)
same,GI50,SF-295,> 31.6 µM (inactive)
same,GI50,NCI-H226,18.3 µM (inactive)
same,GI50,UACC-257,> 31.6 µM (inactive)
same,GI50,MCF7,> 31.6 µM (inactive)
same,GI50,OVCAR-5,> 31.6 µM (inactive)
O=C(CC(=O)c1ccncc1)c1ccccc1,GI50,COLO 205,> 100 µM (inactive)
same,GI50,HCC 2998,> 67.1 µM (inactive)
same,GI50,M14,78 µM (inactive)
same,GI50,A549,> 100 µM (inactive)
same,GI50,CCRF-CEM,11.9 µM (inactive)
same,GI50,OVCAR-8,59.6 µM (inactive)
same,GI50,CAKI-1,> 100 µM (inactive)
same,GI50,SK-MEL-5,90.4 µM (inactive)
same,GI50,HOP-92,> 87.1 µM (inactive)
same,GI50,NCI-H23,80.7 µM (inactive)
same,GI50,DU-145,> 100 µM (inactive)
same,GI50,HCT-15,35.9 µM
same,GI50,SF-539,63.5 µM (inactive)
same,GI50,RPMI-8226,52.5 µM (inactive)
same,GI50,T47D,> 100 µM (inactive)
same,GI50,HL-60,1.01 µM (active)
same,GI50,SN12C,42.2 µM (inactive)
same,GI50,SK-OV-3,> 100 µM (inactive)
same,GI50,U-251,49.7 µM (inactive)
same,GI50,786-0,66.4 µM (inactive)
same,GI50,HOP-62,71.8 µM (inactive)
same,GI50,SNB-75,> 63.8 µM (inactive)
same,GI50,UACC-62,88.7 µM (inactive)
same,GI50,UO-31,> 74.5 µM (inactive)
same,GI50,A498,> 100 µM (inactive)
same,GI50,SR,22.1 µM (inactive)
same,GI50,NCI/ADR-RES,24.3 µM (inactive)
same,GI50,SW-620,73.1 µM (inactive)
same,GI50,IGROV-1,> 100 µM (inactive)
same,GI50,OVCAR-3,> 85.3 µM (inactive)
same,GI50,PC-3,> 77.8 µM (inactive)
same,GI50,KM12,> 100 µM (inactive)
same,GI50,Malme-3M,40.3 µM (inactive)
same,GI50,K562,45.1 µM (inactive)
same,GI50,MOLT-4,38.1 µM (inactive)
same,GI50,MDA-MB-231,> 100 µM (inactive)
same,GI50,LOX IMVI,31.8 µM (inactive)
same,GI50,EKVX,> 64.3 µM (inactive)
same,GI50,BT-549,> 100 µM (inactive)
same,GI50,MDA-N,> 71.1 µM (inactive)
same,GI50,NCI-H522,67.3 µM (inactive)
same,GI50,SNB-19,> 100 µM (inactive)
same,GI50,SF-268,63.5 µM (inactive)
same,GI50,OVCAR-4,> 100 µM (inactive)
same,GI50,HCT-116,75.2 µM (inactive)
same,GI50,ACHN,67.6 µM (inactive)
same,GI50,HT-29,> 77.8 µM (inactive)
same,GI50,NCI-H460,32.9 µM (inactive)
same,GI50,Hs-578T,> 100 µM (inactive)
same,GI50,RXF 393,81.3 µM (inactive)
same,GI50,TK-10,> 94.8 µM (inactive)
same,GI50,MDA-MB-435,> 100 µM (inactive)
same,GI50,SK-MEL-2,> 81.1 µM (inactive)
same,GI50,SK-MEL-28,> 100 µM (inactive)
same,GI50,SF-295,> 83.8 µM (inactive)
same,GI50,NCI-H226,> 100 µM (inactive)
same,GI50,UACC-257,> 85.7 µM (inactive)
same,GI50,MCF7,> 77.6 µM (inactive)
same,GI50,OVCAR-5,> 100 µM (inactive)
N#CC12CC3=C(N=C1NC1=C(CCc4ccccc41)C2)c1ccccc1CC3 (configuration not stated),GI50,COLO 205,1.73 µM (inactive)
same,GI50,HCC 2998,1.74 µM (inactive)
same,GI50,M14,2.76 µM (inactive)
same,GI50,A549,3.32 µM (inactive)
same,GI50,CCRF-CEM,0.745 µM (active)
same,GI50,OVCAR-8,3.24 µM (inactive)
same,GI50,CAKI-1,3.8 µM (inactive)
same,GI50,SK-MEL-5,3.74 µM (inactive)
same,GI50,HOP-92,2.72 µM (inactive)
same,GI50,NCI-H23,3.18 µM (inactive)
same,GI50,DU-145,3.97 µM (inactive)
same,GI50,HCT-15,1.76 µM
same,GI50,SF-539,2.53 µM (inactive)
same,GI50,RPMI-8226,0.993 µM (active)
same,GI50,T47D,6.67 µM (inactive)
same,GI50,HL-60,0.323 µM (active)
same,GI50,SN12C,5.15 µM (inactive)
same,GI50,SK-OV-3,2.67 µM (inactive)
same,GI50,U-251,1.58 µM (inactive)
same,GI50,786-0,3.42 µM (inactive)
same,GI50,HOP-62,5.37 µM (inactive)
same,GI50,SNB-75,1.64 µM (inactive)
same,GI50,UACC-62,2.82 µM (inactive)
same,GI50,UO-31,3.45 µM (inactive)
same,GI50,A498,1.8 µM (inactive)
same,GI50,SR,0.255 µM (active)
same,GI50,NCI/ADR-RES,2.97 µM (inactive)
same,GI50,SW-620,0.871 µM (active)
same,GI50,IGROV-1,1.44 µM (inactive)
same,GI50,OVCAR-3,0.538 µM (active)
same,GI50,PC-3,2.12 µM (inactive)
same,GI50,KM12,0.938 µM (active)
same,GI50,Malme-3M,1.71 µM (inactive)
same,GI50,K562,0.317 µM (active)
same,GI50,MOLT-4,1.72 µM (inactive)
same,GI50,MDA-MB-231,4.16 µM (inactive)
same,GI50,LOX IMVI,1.42 µM (inactive)
same,GI50,EKVX,4.67 µM (inactive)
same,GI50,BT-549,9.29 µM (inactive)
same,GI50,MDA-N,0.258 µM (active)
same,GI50,NCI-H522,1.23 µM (inactive)
same,GI50,SNB-19,3.95 µM (inactive)
same,GI50,SF-268,3.3 µM (inactive)
same,GI50,OVCAR-4,7.55 µM (inactive)
same,GI50,HCT-116,1.95 µM (inactive)
same,GI50,ACHN,6.59 µM (inactive)
same,GI50,HT-29,0.533 µM (active)
same,GI50,NCI-H460,3.06 µM (inactive)
same,GI50,Hs-578T,4.83 µM (inactive)
same,GI50,RXF 393,3.4 µM (inactive)
same,GI50,TK-10,4.61 µM (inactive)
same,GI50,MDA-MB-435,0.278 µM (active)
same,GI50,SK-MEL-2,4.39 µM (inactive)
same,GI50,SK-MEL-28,4.06 µM (inactive)
same,GI50,SF-295,0.984 µM (active)
same,GI50,NCI-H226,3.73 µM (inactive)
same,GI50,UACC-257,17.6 µM (inactive)
same,GI50,MCF7,0.594 µM (active)
same,GI50,OVCAR-5,4.22 µM (inactive)
